Laboratory results reported in PubChem BioAssay (NCI).
“And” between values parts separate entries of the source, which are not always exact repeats. Equal values may be shown once.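 How tested: cells in 96-well plates exposed to compound for 48 hours at five concentrations. GI50 is the concentration that inhibits growth by half. TGI: total growth inhibition.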

What was measured:
Experiment in all cases: growth of human tumour cells (NCI), 48 h
[1] = system: SNB-19 CNS
[2] = system: COLO 205 colon
[3] = system: SF-268 CNS
[4] = system: OVCAR-5 ovarian
[5] = system: NCI-H522 lung
[6] = system: U251 CNS
[7] = system: SK-MEL-5 melanoma
[8] = system: UO-31 renal
[9] = system: OVCAR-4 ovarian
[10] = system: OVCAR-3 ovarian

Row | Compound | TGI [1] | TGI [2] | TGI [3] | TGI [4] | TGI [5] | TGI [6] | TGI [7] | TGI [8] | TGI [9] | TGI [10] | GI50 [1] | GI50 [2] | GI50 [3] | GI50 [4] | GI50 [5] | GI50 [6] | GI50 [7] | GI50 [8] | GI50 [9] | GI50 [10]
1 | O=C1[C@H]2ON(c3ccccc3)C(c3ccc([N+](=O)[O-])cc3)[C@H]2C(=O)N1c1ccc(Cc2ccc(N3C(=O)[C@@H]4ON(c5ccccc5)C(c5ccc([N+](=O)[O-])cc5)[C@@H]4C3=O)cc2)cc1 (stereo partly specified) | > 100 µM | > 100 µM | > 100 µM | > 100 µM | > 100 µM | > 100 µM | > 100 µM | > 100 µM | > 100 µM | > 100 µM |  |  |  |  |  |  |  |  |  | 
2 | Cc1cc2c(C(=O)NC[C@H](C)c3ccccc3)c(O)c(O)cc2c(O)c1-c1c(C)cc2c(C(=O)NC[C@H](C)c3ccccc3)c(O)c(O)cc2c1O | 4.3 µM | 5.83 µM | 3.7 µM | 5.03 µM | 1.18 µM | 1.67 µM | 1.47 µM | 1.24 µM | 8.3 µM | 1.55 µM | 0.0605 µM | 0.711 µM | 0.234 µM | 0.503 µM | 0.288 µM | 0.074 µM | 0.447 µM | 0.285 µM | 0.446 µM | 0.306 µM
3 | COC(=O)[C@@H]1c2cc3c(c(O)c2[C@@H](OC2OC(C)C(OC)C(C)(OC)C2OC)C[C@]1(C)O)C(=O)c1c(O)cc2c(c1C3=O)O[C@H]1O[C@]2(C)[C@H](O)[C@@H](N(C)C)[C@@H]1O (stereo partly specified) | 11.1 µM | 0.0351 µM | 0.329 µM and 0.135 µM |  | 0.0638 µM and 0.0131 µM | 0.443 µM and 0.236 µM | 0.0278 µM | 0.983 µM and 1.17 µM | 0.291 µM |  |  |  |  | 0.0651 µM |  |  |  | 0.21 µM |  | 0.0683 µM
4 | CC(C)N(C(=O)C12C3C4C5(C#N)C3C1(C#N)C5C42C#N)C(C)C (stereo unspecified) | > 100 µM | > 100 µM | > 100 µM | > 100 µM | > 100 µM | > 100 µM | > 100 µM | > 100 µM | > 100 µM | > 100 µM |  |  |  |  |  |  |  |  |  | 
5 | CCc1ccc(Oc2c(-c3ccc(OCc4ccc(Cl)cc4)cc3O)n[nH]c2C(F)(F)F)cc1 | 4.21 µM | 3.27 µM | 3.39 µM | 3.95 µM | 4.33 µM | 3.22 µM | 3.03 µM | 3.89 µM | 3.31 µM | 3.28 µM | 1.98 µM | 1.71 µM | 1.74 µM | 1.89 µM | 1.72 µM | 1.79 µM | 1.66 µM | 1.68 µM | 1.62 µM | 1.78 µM
6 | CC(=O)O[C@@H]1C2CCC3C(CC[C@@]4(C)C3CC[C@@H]4C(C)N(C)C)[C@@]2(C)CC[C@@H]1NC(=O)C=C(C)C (stereo partly specified) | 18.7 µM | 3.1 µM | 3.31 µM | 14.1 µM | 8.58 µM | 8.61 µM | 2.68 µM | 3.33 µM | 17.2 µM | 7.42 µM | 6.89 µM | 1.62 µM | 1.56 µM | 3.33 µM | 2.74 µM | 2.22 µM | 1.38 µM | 1.5 µM | 3.51 µM | 2.24 µM
7 | O=C(O)CSc1n[nH]c(=O)[nH]c1=O | > 100 µM | > 100 µM | > 100 µM | > 100 µM | > 100 µM | > 100 µM | > 100 µM | > 100 µM | > 100 µM | > 100 µM |  |  |  |  |  |  |  |  |  | 
8 | Cc1ccc(O)c(NC(=O)c2cccc(Nc3ccnc(C(F)(F)F)c3)c2)c1 | 69.8 µM | 33.7 µM | 39 µM | 36 µM | 5.84 µM | 37.6 µM | 14 µM | 18.1 µM | 31.2 µM | 41.6 µM | 17.9 µM | 14.6 µM | 13.3 µM | 13 µM | 1.23 µM | 15.6 µM | 2.15 µM | 3.03 µM | 2.97 µM | 15.5 µM
9 | Cc1onc(-c2ccccc2)c1C(=O)N/N=C/c1cc(Cl)cc(Cl)c1O | > 100 µM | 24.2 µM | > 100 µM | > 100 µM | 33.6 µM | 57.6 µM | 21.1 µM | 12.9 µM | > 100 µM | 26.6 µM | 4.12 µM | 3.84 µM | 3.44 µM | 8.65 µM | 3.67 µM | 3.19 µM | 3.47 µM | 1.83 µM | 2.07 µM | 3.82 µM
10 | Oc1c(Cl)cc(Cl)c(Cl)c1CNCCNCc1c(O)c(Cl)cc(Cl)c1Cl | 11.3 µM | > 50 µM | 12.1 µM | 29 µM | 8.24 µM | 6.61 µM | 8.06 µM | 6.42 µM | 7.87 µM | 7.08 µM | 1.49 µM | 1.09 µM | 0.997 µM | 2.49 µM | 1.28 µM | 0.556 µM | 1.35 µM | 0.625 µM | 0.41 µM | 0.502 µM
11 | O=C(CN(/C=C/C(=O)C(F)(F)F)c1ccc(Cl)cc1)c1ccc(Cl)cc1 | 31.2 µM | 31.8 µM | 29.4 µM | 32.9 µM | 5.93 µM | 20.5 µM | 24.3 µM | 24.8 µM | 32.4 µM | 17.3 µM | 11 µM | 13.4 µM | 11.5 µM | 16.1 µM | 2.1 µM | 7.53 µM | 11.6 µM | 12 µM | 12 µM | 4.52 µM
12 | C=CN(C(=O)N1CCN(c2cc3c(cc2F)c(=O)c(C(=O)O)cn3C2CC2)CC1)c1nc(-c2ccc(OC)cc2)cs1 | 46 µM | 6.59 µM | > 100 µM | > 100 µM | 6.95 µM | 13.4 µM | 4.78 µM | > 100 µM | > 100 µM | > 100 µM | 4.7 µM | 2.54 µM | 4.14 µM | 5.13 µM | 2.67 µM | 4.04 µM | 2.11 µM | 2.1 µM | 3.96 µM | 3.29 µM
13 | NC(=O)NNC(=O)CCn1[nH]c(=O)c(Cl)c(Cl)c1=O | > 100 µM | > 100 µM | > 100 µM | > 100 µM | > 100 µM | > 100 µM | > 100 µM | > 100 µM | > 100 µM | > 100 µM |  |  |  |  |  |  |  |  |  | 
